Here are results for three compounds from patent publication US20180010132A1, “INHIBITION OF PRMT5 TO TREAT MTAP-DEFICIENCY-RELATED DISEASES” (NOVARTIS AG, priority 2014, published 2018).

Each structure is given as a SMILES string.

The target in one assay is PRMT5 (Homo sapiens, UniProt O14744). As to conditions: methylating the substrate E2-F-1; cited from earlier work.
For another assay, the target named is PRMT5/MEP50 complex (Homo sapiens, UniProt O14744). Briefly: LC/MS based biochemical histone methyltransferase assay. The protocol:
Top: Schematic representation of multi-allele dual-selection assay with P2A or STOP insertion cassettes and crystal violet staining of cells. […] Profiling of the inhibitory activity (IC50) of adenosine and MTA across a panel of histone methyltransferases (HMTs) in an LC/MS based biochemical assay. MTA and adenosine display single digit μM activity against the PRMT5/MEP50 complex (red) but have no activity (IC50>100 μM) across all other HMTs tested. […] MIAPaCa2 cells stably expressing inducible shPRMT5-2 were transduced with pRetro empty vector control or with MTAP cDNA and proliferation assessed by confluence measurements using Incucyte. […] FIGS. 3 K and L show in vitro proliferation assay of PK1 MTAP isogenic cell lines generated from a non-targeting control sgRNA FIG. 3 K, PK1 CTRL; or with a sgRNA targeting MTAP 1, PK1 MTAP KO and stably expressing Dox-inducible PRMT5 (shPRMT5-2) with and without treatment with doxycycline (+/−Dox) over time (hours) as assessed by incucyte (n=24 per treatment condition). […] FIGS. 3 M and N show focus formation of PK1 (FIG. 3M), wild type (WT) and (FIG. 3N), MTAP knockout (MTAP KO) cells treated with DMSO or MTA at concentrations as indicated.

PRMT5/MEP50 complex, sequence (O14744 whole entry): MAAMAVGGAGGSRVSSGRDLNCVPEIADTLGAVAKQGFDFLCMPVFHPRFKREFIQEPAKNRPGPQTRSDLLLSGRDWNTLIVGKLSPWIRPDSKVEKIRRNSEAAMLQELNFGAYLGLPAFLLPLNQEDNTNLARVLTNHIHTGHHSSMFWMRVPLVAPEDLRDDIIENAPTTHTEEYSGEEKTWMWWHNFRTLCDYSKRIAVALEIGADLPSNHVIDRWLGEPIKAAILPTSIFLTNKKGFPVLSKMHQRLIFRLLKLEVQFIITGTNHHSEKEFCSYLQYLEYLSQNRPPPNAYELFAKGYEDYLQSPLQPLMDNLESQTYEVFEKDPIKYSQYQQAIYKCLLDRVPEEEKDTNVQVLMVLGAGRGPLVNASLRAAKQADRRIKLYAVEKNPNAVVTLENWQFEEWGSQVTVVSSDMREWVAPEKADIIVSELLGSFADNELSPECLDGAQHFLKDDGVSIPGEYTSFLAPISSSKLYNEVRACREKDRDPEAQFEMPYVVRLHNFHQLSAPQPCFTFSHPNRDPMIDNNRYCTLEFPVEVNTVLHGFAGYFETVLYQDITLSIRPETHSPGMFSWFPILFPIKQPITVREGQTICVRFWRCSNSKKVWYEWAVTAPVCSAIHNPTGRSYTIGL
PRMT5/MEP50 complex, sequence (Q9BQA1 whole entry partner): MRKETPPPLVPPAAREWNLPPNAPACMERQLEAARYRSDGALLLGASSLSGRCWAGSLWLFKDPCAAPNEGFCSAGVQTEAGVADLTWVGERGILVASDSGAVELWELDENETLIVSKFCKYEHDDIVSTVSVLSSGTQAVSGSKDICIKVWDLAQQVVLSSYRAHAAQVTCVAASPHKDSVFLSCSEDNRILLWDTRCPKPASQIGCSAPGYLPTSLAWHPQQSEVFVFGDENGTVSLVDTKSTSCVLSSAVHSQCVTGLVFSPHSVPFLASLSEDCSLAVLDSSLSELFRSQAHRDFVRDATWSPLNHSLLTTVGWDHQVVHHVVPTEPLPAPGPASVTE
PRMT5, sequence (O14744 whole entry): as the sequence (O14744 whole entry) above
PRMT5, sequence (Q9BQA1 whole entry partner): as the sequence (Q9BQA1 whole entry partner) above

As for `Nc1ncnc2c1ncn2[C@@H]1O[C@H](C[C@@H](N)CC[C@H](N)C(=O)O)C(O)C1O` (stereo in doubt) [Sinefungin, 5′-Deoxy-5′-(1,4-diamino-4-carboxybutyl)adenosine], the PRMT5 activity entry on PRMT5 is “inhibits”.
For the compound `CSC[C@H]1O[C@@H](n2cnc3c(N)ncnc32)[C@H](O)[C@@H]1O` [MTA, methyl-thioadenosine], the “inhibitory activity (IC50)” value on PRMT5/MEP50 complex is recorded as “single digit”.
On the same count and under the same terms, the result for `Nc1ncnc2c1ncn2[C@@H]1O[C@H](CO)[C@@H](O)[C@H]1O` [adenosine] reads “single digit”.
